Assay results reported in article PMC12406255, “Engineering Peptide Modulators for T‑Cell Migration by Structural Scaffold Matching” (Journal of Medicinal Chemistry, 2025).
Where two headings read alike, the source gives them in different places. Positions of bridges follow the written chain, without caps; N, C: chain ends. Non-standard residues stand in square brackets, D forms with d. Residues, ends and D or L forms follow the SMILES beside them. Nle = CCCC[C@H](N)C(=O)O

Columns and labels:
[1] = tested on: CD3+ lymphocytes; test: cells; assay type: cell-based, human; details: normalized to untreated control, mean ± SEM of 4-6 experiments
Method: 1 Transwell-based migration assay to study lymphocyte transendothelial migration. (A) The general principle of the transwell migration assay is depicted. Endothelial cells (EC) are seeded in transwell inserts and are incubated for 2 days to form an EC monolayer. On the day before the assay, the ECs are cytokine-stimulated to induce the expression of adhesion molecules. In the migration assay, human peripheral blood mononuclear cells (PBMC) are placed into the donor compartment of the transwell setup. After 4 h of incubation time, the migrated cells are harvested from the receiver compartment, stained with fluorescent antibodies and counted using flow cytometry. (B) PBMCs were preincubated with S1P for 1.5 h and then transferred into the donor compartment on top of the EC monolayer. […] Data are shown as mean ± SD of 3 to 5 independent experiments.
(§1) Transwell migration assays were performed similarly as published previously. HMEC-1 cells were seeded at a density of 75,000 cells per well in transwell inserts. Three days after cell seeding, the medium was changed, and the cells were stimulated with 100 ng/mL TNF-α and 20 ng/mL IFN-γ for 16–18 h. On the day of the assay, cells were washed with migration medium (serum-free RPMI medium supplemented with 0.1% BSA) to remove residual cytokines and starved for at least 1 h at 37 °C in migration medium. PBMC were starved for at least 1.5 h in migration medium before addition to the EC. For S1P and lifitegrast-treated samples, the PBMC were preincubated for at least 1.5 h at 37 °C with the ligands before addition to the EC. Pepitem and other peptides were added onto the EC monolayer and preincubated for 15–30 min at 37 °C before the addition of the PBMC. 200,000 PBMC per well were added directly on top of the EC prestimulated with pepitem or other peptides to reach a final volume of 150 μL in the donor compartments. The receiver compartments of the wells were filled with 600 μL RPMI with 20% FBS. After 4 h of migration at 37 °C, the receiver compartment with the migrated cells was collected. The migrated cells were stained with the indicated antibodies: CD3-APC (clone: OKT3, lot: B400127), CD4-PE (clone: OKT4. lot: B379180), CD8-FITC (clone: HIT8a, lot: B370193) from Biolegend and CD3-VioGreen (clone: REA613, lot: 5240502518), CD45RO-FITC (clone: REA611, lot: 5240502519), CD4-PerCP-Vio700 (clone: REA623, lot: 5240506702), CXCR3 PE-Vio615 (clone: REA232, lot: 5240506722), CD196-APC (clone: REA190, lot: 5240506717), CD8-APC-Vio770 (clone: REA734, lot: 5240303993) and CD45RO-PEVio616 (clone: REA611, lot: 5231102514) from Miltenyi Biotec (Bergisch Gladbach, Germany) and counted using precision counting beads (Biolegend) on a CytoflexS flow cytometer (BeckmanCoulter). Data was analyzed using CytExpert (Version 2.4). T cells were gated as CD3^+ cells, T cell subsets were gated as CD4^+ (CD3^+, CD4^+), CD8^+ (CD3^+, CD8^+), memory CD4^+ (CD3^+, CD4^+, CD45RO^+), memory CD8^+ (CD3^+, CD8^+, CD45RO^+) and Th1 cells (CD3^+, CD4^+, CXCR3^+, CCR6^–).
(§2) Data were analyzed using GraphPad Prism software. EC50 values were calculated by three-parameter nonlinear regression analysis. For this, the data points were normalized to the number of migrated cells in untreated (buffer) control samples (100%), and the regression was fitted with the top constraint to 100 and the slope fixed to 1. Statistical significance is indicated in graphs as n.s. not significant, * p < 0.05; ** p < 0.01; *** p < 0.001. The statistical tests used are indicated in the respective figure captions.

[2] = tested on: memory CD4+ cells (CD3+, CD4+, CD45RO+); assay type: cell-based, human; details: normalized to untreated control, mean ± SEM of 4-6 experiments
Method: as §1, §2

[3] = tested on: CD8+ lymphocytes (CD3+, CD8+); assay type: cell-based, human; details: normalized to untreated control, mean ± SEM of 4-6 experiments
Method: as §1, §2

[4] = tested on: CD4+ lymphocytes (CD3+, CD4+); assay type: cell-based, human; details: normalized to untreated control, mean ± SEM of 4-6 experiments
Method: as §1, §2

[5] = tested on: memory CD8+ cells (CD3+, CD8+, CD45RO+); assay type: cell-based, human; details: normalized to untreated control, mean ± SEM of 4-6 experiments
Method: as §1, §2

[6] = Serum stability assay; assay type: in vitro ADME; details: human serum of healthy donors, lipids removed by centrifugation, 37 °C, peptide 30-60 μM from 10-fold stock in PBS, followed over 48 h, urea/TFA quench, analytical RP-HPLC peak area vs time 0, one-phase decay fit; mean ± SD, n = 2 (pepitem n = 5); read-out: Serum t 1/2 (converted)
Method: Stability of peptides in human serum was measured similarly to that previously described. In short, fresh blood from healthy donors was collected in serum collection tubes (Clot Activator Tube, Becton Dickinson, Plymouth, United Kingdom, […]) and incubated at 4 °C for 2 h to allow blood clotting. The serum was separated by centrifugation at 1000 × g for 10 min. To remove lipids from the serum, an additional centrifugation step was performed at 15,000 × g for 15 min at 4 °C, after which the serum was used for the stability assays. For this, the serum was prewarmed for 10 min at 37 °C before the addition of the test compounds. Peptides were prepared at a 10-fold concentration in PBS and diluted to a final concentration between 60 and 30 μM with the serum. The serum-peptide reaction mix was incubated at 37 °C, and 40 μL aliquots were taken at the indicated time points. To stop the reaction, samples were mixed with 40 μL of 6 M urea for 10 min on ice, followed by precipitation of serum proteins by the addition of 40 μL of 20% TFA and incubation for at least 10 min on ice. The precipitate was pelleted at 15,000 × g for 15 min, and 90 μL of the supernatant was freeze-dried. The dry material was resuspended in HPLC solvent A (0.1% TFA in ddH2O). Peptide quantification was performed using analytical HPLC. The remaining peptide relative to the starting point (time point 0) was calculated by peak integration to determine the area under the peak at the designated time points and further calculated in comparison to time point 0 min, which was set as 100%. To calculate the half-life of the peptides in human serum, data points were fitted with a one-phase decay equation.

Row | Structure (SMILES) | % Inhibition of cell migration compared to control, CD3+ ([1]; 0.1 μM) | % Inhibition of cell migration compared to control, CD3+ ([1]; 1 μM) | % Inhibition of cell migration compared to control, Memory CD4+ ([2]; 0.1 μM) | % Inhibition of cell migration compared to control, Memory CD4+ ([2]; 1 μM) | % Inhibition of cell migration compared to control, CD8+ ([3]; 0.1 μM) | % Inhibition of cell migration compared to control, CD8+ ([3]; 1 μM) | % Inhibition of cell migration compared to control, CD4+ ([4]; 0.1 μM) | % Inhibition of cell migration compared to control, CD4+ ([4]; 1 μM) | % Inhibition of cell migration compared to control, Memory CD8+ ([5]; 0.1 μM) | % Inhibition of cell migration compared to control, Memory CD8+ ([5]; 1 μM) | half-life [6]
1 | CCCC[C@@H]1NC(=O)[C@H](C(C)C)NC(=O)[C@H](CCCCN)NC(=O)[C@@H](NC(=O)[C@H](CCC(N)=O)NC(=O)[C@H](CCC(=O)O)NC(C)=O)CSSC[C@@H](C(=O)N[C@@H](CCC(=O)O)C(=O)N[C@@H](CCCCN)C(N)=O)NC(=O)[C@H](CC(N)=O)NC(=O)[C@H](CC(=O)O)NC(=O)[C@H](CC(C)C)NC(=O)[C@@H]2CSSC[C@H](NC1=O)C(=O)N[C@@H](Cc1ccc(O)cc1)C(=O)N[C@@H](CCC(=O)O)C(=O)N[C@@H](CCC(N)=O)C(=O)NCC(=O)N[C@@H](C)C(=O)N[C@@H](CCC(=O)O)C(=O)N[C@@H](CC(C)C)C(=O)N1CCC[C@H]1C(=O)N[C@@H](CCC(=O)O)C(=O)N[C@@H](CC(C)C)C(=O)N[C@@H](CC(C)C)C(=O)N[C@@H](CCCNC(=N)N)C(=O)N[C@@H](CCCNC(=N)N)C(=O)N2 [VhTI-pep 3] (Ac-EQCKV[Nle]CYEQGAELPELLRRCLDNCEK-NH2; disulfide 3-25, 7-21) | 1.5 ± 7.6% | 4.6 ± 10.6% | –8.7 ± 3.4% | 11.7 ± 10.6% | 10.4 ± 11.2% | 14.0 ± 13.8% | –8.9 ± 18.1% | 10.8 ± 10.1% | 3.9 ± 9.7% | 3.0 ± 11.6% | > 48 h
2 | CCCC[C@@H]1NC(=O)[C@H](C(C)C)NC(=O)[C@H](CCCCN)NC(=O)[C@@H](NC(=O)[C@H](CCC(N)=O)NC(=O)[C@H](CCC(=O)O)NC(C)=O)CSSC[C@@H](C(=O)N[C@@H](CCC(=O)O)C(=O)N[C@@H](CCCCN)C(N)=O)NC(=O)[C@H](CC(N)=O)NC(=O)[C@H](CC(=O)O)NC(=O)[C@H](CC(C)C)NC(=O)[C@@H]2CSSC[C@H](NC1=O)C(=O)N[C@@H](Cc1ccc(O)cc1)C(=O)N[C@@H](CCC(N)=O)C(=O)NCC(=O)N[C@@H](C)C(=O)N[C@@H](CCC(=O)O)C(=O)N[C@@H](CC(C)C)C(=O)N[C@@H](CO)C(=O)N1CCC[C@H]1C(=O)N[C@@H](CCC(=O)O)C(=O)N[C@@H](CC(C)C)C(=O)N[C@@H](CC(C)C)C(=O)N[C@@H](CCCNC(=N)N)C(=O)N[C@@H](CCCNC(=N)N)C(=O)N2 [VhTI-pep 4] (Ac-EQCKV[Nle]CYQGAELSPELLRRCLDNCEK-NH2; disulfide 3-25, 7-21) | 16.7 ± 11.0% | 24.4 ± 8.0% | 12.9 ± 11.0% | 27.2 ± 7.8% | 19.5 ± 20.2% | 26.0 ± 10.7% | 16.5 ± 7.3% | 24.5 ± 5.9% | 27.9 ± 3.8% | 19.7 ± 7.9% | > 48 h
3 | CCCC[C@@H]1NC(=O)[C@H](C(C)C)NC(=O)[C@H](CCCCN)NC(=O)[C@@H](NC(=O)[C@H](CCC(N)=O)NC(=O)[C@H](CCC(=O)O)NC(C)=O)CSSC[C@@H](C(=O)N[C@@H](CCC(=O)O)C(=O)N[C@@H](CCCCN)C(N)=O)NC(=O)[C@H](CC(N)=O)NC(=O)[C@H](CC(=O)O)NC(=O)[C@H](CC(C)C)NC(=O)[C@@H]2CSSC[C@H](NC1=O)C(=O)N[C@@H](Cc1ccc(O)cc1)C(=O)N[C@@H](CCC(=O)O)C(=O)N[C@@H](CCC(N)=O)C(=O)NCC(=O)N[C@@H](C)C(=O)N[C@@H](CC(C)C)C(=O)N[C@@H](CO)C(=O)N1CCC[C@H]1C(=O)N[C@@H](CCC(=O)O)C(=O)N[C@@H](CC(C)C)C(=O)N[C@@H](CC(C)C)C(=O)N[C@@H](CCCNC(=N)N)C(=O)N[C@@H](CCCNC(=N)N)C(=O)N2 [VhTI-pep 5] (Ac-EQCKV[Nle]CYEQGALSPELLRRCLDNCEK-NH2; disulfide 3-25, 7-21) | 18.0 ± 6.2% | 28.4 ± 7.4% | 11.5 ± 13.6% | 28.6 ± 8.8% | 20.8 ± 6.8% | 24.8 ± 12.8% | 16.2 ± 7.7% | 33.5 ± 5.7% | 4.7 ± 10.1% | 14.0 ± 13.4% | > 48 h
